# ChEMBL document CHEMBL4418270, “Novel Pyrimidine- And Triazine-Hepcidine Antagonists” (2012)
# Target: T1, Hepcidin (Homo sapiens) (UniProt P81172)
# T1 sequence (whole entry): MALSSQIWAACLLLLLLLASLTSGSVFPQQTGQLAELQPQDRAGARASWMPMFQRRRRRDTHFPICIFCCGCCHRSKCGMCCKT
# Assay: Inhibition of human hepcidin-stimulated recombinant C-terminal Halo-tagged human FPN internalization in MDCK cells at 10 uM incubated for 15 to 20 mins by Halo-tagged TMR based fluorescence assay relative to control
# Type: cell-based
row,inhibition,SMILES
1,< 50%,C/C(=N\Nc1cc(N2CCOCC2)nc(C)n1)c1ccc(F)cc1
2,< 50%,Nc1nc(-c2ccccn2)nc(N)c1Cc1ccccc1F
3,> 50%,Oc1cccc(/C=N/Nc2cc(N3CCOCC3)nc(N3CCOCC3)n2)c1
4,> 50%,COc1ccc(O)c(/C=N/Nc2nc(N3CCOCC3)nc(N3CCOCC3)n2)c1
5,< 50%,Cc1ccc2cc(Nc3nc(N4CCOCC4)nc(N4CCOCC4)n3)ccc2n1
6,> 50%,Cc1nc(N/N=C/c2ccc(O)cc2O)cc(N2CCOCC2)n1
7,> 50%,Oc1ccccc1/C=N/Nc1cc(N2CCOCC2)nc(N2CCOCC2)n1
8,> 50%,COc1cnc(-c2ccccn2)nc1NC(C)C
9,> 50%,c1ccc(N(c2ccccc2)c2nc(N3CCOCC3)nc(-n3ccnc3)n2)cc1
10,< 50%,Cc1nc(-c2ccccn2)nc(NCCNc2cc(C(F)(F)F)ccn2)c1Cl
11,< 50%,CN(c1ccccc1)c1nc(N2CCOCC2)nc(-n2ccnc2)n1
12,< 50%,Cc1nc(-c2ccccn2)nc(NCCNc2ccc(C(F)(F)F)cn2)c1Cl
